Measurements: patent US9649279B2, “Fortified micronutrient salt formulations” (Massachusetts Institute of Technology, priority 2013, dated 2017)
“Also recorded” adds a separate entry of the source.

What was measured:
[1] = In vitro release of micronutrients from EPO microspheres; format: physicochemical; conditions: for release in SGF after 0.5 hours / release in SGF: SGF at 37° C.; for release in water: water at room temperature and 100° C.
From the text: Eight essential micronutrients, presented in Table 3, were encapsulated and their release studied in vitro.
In-house assays were developed for micronutrient detection and determination of encapsulation efficiency and release kinetics.

[2] = Release of EPO-coated micronutrients in water then SGF (ELISA); format: physicochemical; conditions: for release in SGF / release in water: 5% EPO coating; for release in SGF: SGF at 37° C., after one hour; for release in water: water at 25° C. and 100° C., one hour; for stability in the formulations by ELISA: not degraded or denatured
Method: To mimic food preparation then ingestion, the samples were submerged in 4 mL water (at 25° C. or 100° C.) for one hour and transferred to 4 mL simulated gastric fluid at 37° C. for two hours.

[3] = Vitamin C stability and recovery under cooking conditions; format: physicochemical
Method: Formulations were tested for factors that increase stability and leakage characteristics for particular nutrients.
Ascorbic acid can become oxidixed and hydrolyzed, resulting in reduced bioactivity. Compounds specifically identified as stabilizing ascorbic acid, trans-Ferulic Acid (FA), Caffeic Acid (CA), and p-Coumaric Acid (p-CA), can be used in the particles and matrix to stabilize vitamin C.
To increase the loading of the ascorbic acid in the formulations, large amounts of ascorbic acid need to be added in the initial formulation process. However, the use of large amount of ascorbic acid can lower the pH of the water during the formulation, and this low pH condition can also dissolve the polymer we use to make the microparticles. To avoid this low pH issue, sodium ascorbate, which has equivalent bioactivity as ascorbic acid, can be used. Over 60 wt % of sodium ascorbate (NaAA) can be recovered after 2 hrs heating at 100° C.

[4] = enteric coated, three month storage, 25° C./20% RH and 45° C./60% RH; cited from earlier work
[5] = Vitamin D3 stability and recovery; format: physicochemical
Method: Vitamin D3 is not stable under heat. Alteration involves ring-closure that allows generation of pyro- and isopyro-isomers. […] However, it degraded in water at 100° C. after 2 hours. The recovery of vitamin D3 in water at 100° C. is concentration-dependent. When the starting amount of vitamin D3 increased, the recovery after 2 hours cooking also went up, from 2% (15 μg), to 12% (60 μg), to 40% (240 μg), and to 60% (1 mg). The encapsulation of vitamin D3 in EPO matrix helped to stabilize the vitamin D3. The characteristic absorbance peak of vitamin D3 was preserved in D3-EPO after 100° C. in water for 2 hours. […] With HPLC, the recovery of D3 in D3-EPO was quantified to be around 47%.

[6] = Autoclaving of vitamin B12 in EPO-HA microspheres; format: physicochemical; conditions: 16 psig and 250° F. for 30 minutes
Method: Vitamin B12 was encapsulated in the EPO-HA microspheres and subjected to autoclaving. The autoclaving conditions were 16 psig and 250° F. for 30 minutes. […] Thus, the formulations can survive and prevent the leakage of MNs under autoclaving conditions.

Nc1nc2ncc(CNc3ccc(C(=O)N[C@@H](CCC(=O)O)C(=O)O)cc3)nc2c(=O)[nH]1 [Vitamin B9, folic acid]
release in SGF after 0.5 hours ([1]; EPO-gelatin-microspheres): Complete release
release in 100° C. boiling water ([1]; EPO-gelatin-microspheres, two hours): Slight leakage
release at room temperature ([1]; EPO-gelatin-microspheres, water, room temperature, two hours): Limited release
release in SGF [2]: near complete release
release in SGF ([2]; listed as B9): released all
release in water [2]: negligible release
release in water ([2]; listed as B9): no release
stability in the formulations by ELISA [2]: stable

O=C1O[C@H]([C@@H](O)CO)C([O-])=C1O.[Na+] [NaAA, sodium ascorbate]
recovered after heating ([3]; 2 hrs heating at 100° C.): Over 60 wt %

CCCCCCCCCCCCCCCC(=O)OC/C=C(C)/C=C/C=C(C)/C=C/C1=C(C)CCCC1(C)C [Vitamin A, Retinyl Palimitate]
losses of the micronutrient after storage [4]: 50-99%
release in SGF ([1]; EPO-MS): Complete release
release in water ([1]; EPO-MS): limited release

O=C1O[C@H]([C@@H](O)CO)C(O)=C1O [Vitamin C, Ascorbic acid]
release in SGF after 0.5 hours ([1]; EPO-MS): Complete release
release in water after two hours ([1]; EPO-MS, room temperature and 100° C. boiling water, two hours): Limited release
release during cooking at 100° C. ([3]; increased concentration of the polymer coating): significantly reduced

C=C1CC[C@H](O)C/C1=C/C=C1\CCC[C@]2(C)[C@@H]([C@H](C)CCCC(C)C)CC[C@@H]12 [Vitamin D3, cholecalciferol]
characteristic absorbance peak (UV spectrum) after heating ([5]; 100° C. in water for 2 hours): totally degraded
stability in acidic condition ([5]; SGF (pH=1.2) at 37° C.): stable
stability in water at 100° C. ([5]; water, 100° C., after 2 hours): degraded
stability in water at room temperature ([5]; water, room temperature): stable
release in SGF ([1]; EPO-MS): Fast and complete release
release in water ([1]; EPO-MS): slow and limited release

Vitamin B12
leakage under autoclaving [6]: No severe leakage
effect of 1% oil during boiling on release ([1]; boiling, two hours, 1% oil added): did not increase release
release in SGF [2]: released all; also recorded: near complete release
release in water [2]: no release; also recorded: negligible release
stability in the formulations by ELISA [2]: stable
